The values that follow come from EP0154886A2, “Carboxyalkyl dipeptide derivatives, process for their preparation, agents containing them, and their use” (HOECHST AKTIENGESELLSCHAFT, priority 1984, dated 1985).

For assay [1], the target named is Angiotensin-Converting-Enzyme (ACE) (Homo sapiens, UniProt P12821). Kind of assay: ACE inhibition in vitro assay (Biochem. Biophys. Acta, 206, 136 (1970)). The format is biochemical.
Assay [2] has as its system durch intravenöse Gabe von 310 ng Angiotensin hervorgerufene Pressorreaktion. Kind of assay: Inhibition of the angiotensin-induced pressor response in the anaesthetised rat after intraduodenal administration. It is filed as in vivo, Ratte. The settings on record: narcotised rat. Here is the method: Die erfindungsgemäßen Verbindungen der Formel I sind Hemmer des Angiotensin-Converting-Enzyme (ACE), das die Umwandlung von Angiotensin I in das pressorisch wirksame Angiotensin II katalysiert. […] Besonders interessant ist hierbei der langsame Wirkungseintritt und die lange Wirkdauer der Verbindung. So beobachtet man bei intraduodenaler Gabe von 0,3 mg/kg Körpergewicht eine Hemmung um 15 % nach 10 min, 30 % nach 20 min, 60 % nach 30 min und 70 % nach 45 min; die Wirkung hält länger als 6 Stunden an.

Sequence of Angiotensin-Converting-Enzyme (ACE) (P12821 30-1306, species assumed): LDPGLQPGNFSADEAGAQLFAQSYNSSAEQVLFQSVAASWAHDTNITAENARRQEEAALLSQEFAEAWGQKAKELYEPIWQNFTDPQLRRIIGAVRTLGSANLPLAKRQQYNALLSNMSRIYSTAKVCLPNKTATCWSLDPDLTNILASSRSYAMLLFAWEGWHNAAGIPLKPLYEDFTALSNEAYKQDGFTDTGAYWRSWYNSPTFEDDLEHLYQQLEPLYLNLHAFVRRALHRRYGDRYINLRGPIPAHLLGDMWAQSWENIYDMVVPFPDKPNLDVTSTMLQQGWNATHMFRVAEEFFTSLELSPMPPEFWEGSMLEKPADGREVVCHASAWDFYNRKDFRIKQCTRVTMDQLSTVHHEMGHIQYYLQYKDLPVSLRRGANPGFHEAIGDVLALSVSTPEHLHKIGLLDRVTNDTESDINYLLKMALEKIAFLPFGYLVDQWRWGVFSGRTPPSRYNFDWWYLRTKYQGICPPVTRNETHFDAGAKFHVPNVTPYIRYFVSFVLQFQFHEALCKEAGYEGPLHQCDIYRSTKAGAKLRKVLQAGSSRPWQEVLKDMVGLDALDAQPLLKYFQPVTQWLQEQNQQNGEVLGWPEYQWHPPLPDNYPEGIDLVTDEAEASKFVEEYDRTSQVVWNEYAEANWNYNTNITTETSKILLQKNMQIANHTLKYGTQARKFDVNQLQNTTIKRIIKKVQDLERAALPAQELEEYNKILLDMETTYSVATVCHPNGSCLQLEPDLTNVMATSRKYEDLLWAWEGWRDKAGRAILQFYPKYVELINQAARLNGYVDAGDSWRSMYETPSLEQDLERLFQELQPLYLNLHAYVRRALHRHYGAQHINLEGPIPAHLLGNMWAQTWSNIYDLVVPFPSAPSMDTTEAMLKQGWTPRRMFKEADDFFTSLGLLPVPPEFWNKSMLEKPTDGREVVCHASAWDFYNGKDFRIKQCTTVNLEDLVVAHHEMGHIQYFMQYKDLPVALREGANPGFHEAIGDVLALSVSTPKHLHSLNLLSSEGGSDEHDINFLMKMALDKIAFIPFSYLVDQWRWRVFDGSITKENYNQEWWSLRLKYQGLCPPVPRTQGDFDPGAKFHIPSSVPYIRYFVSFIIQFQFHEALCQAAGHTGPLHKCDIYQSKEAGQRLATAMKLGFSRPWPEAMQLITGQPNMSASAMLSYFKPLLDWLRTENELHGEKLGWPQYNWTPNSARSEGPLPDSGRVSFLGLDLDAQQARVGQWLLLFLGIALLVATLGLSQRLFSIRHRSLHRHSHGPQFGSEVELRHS

Regarding `NCCCC[C@H](N[C@@H](CCC1CCCCC1)C(=O)O)C(=O)N1[C@H](C(=O)O)C[C@@H]2CCCC[C@@H]21` [N-(1-S-CarboxY-3-cyclohexyl-propyl)-S-lysyl-2S,3aS,7aS-octahydroindol-2-carbonsäure], inhibition in assay [1] was half-maximal at 3.4 nM (IC50). Moreover, the Hemmung is 15% in assay [2] (intraduodenal 0,3 mg/kg Körpergewicht, after 10 min); 30% in assay [2] (intraduodenal 0,3 mg/kg Körpergewicht, after 20 min); 60% in assay [2] (intraduodenal 0,3 mg/kg Körpergewicht, after 30 min); 70% in assay [2] (intraduodenal 0,3 mg/kg Körpergewicht, after 45 min). For the same compound, the “Wirkdauer (die Wirkung hält an)” value in assay [2] (intraduodenal 0,3 mg/kg Körpergewicht, duration of effect) is recorded as > 6 Stunden. The “Hemmwirkung auf die Pressorreaktion” value in assay [2] (intraduodenal administration, 310 ng Angiotensin i.v., qualitative) is listed as “starke Hemmwirkung”.
